Laboratory results: patent US10968163B2, “Alpha-truxillic acid derivatives and pharmaceutical compositions thereof” (The Research Foundation for the State University of New York, priority 2016, dated 2021)

Assays:
[1] = compared with morphine; cited from earlier work
FABP3 = FABP3 (Homo sapiens (Human), UniProt P05413); assay: DAUDA, ANS or NBD-stearate fluorescence displacement binding assay, FABP3; settings: average ± S.E. of at least three independent experiments
FABP5 [2] = target: T1, FABP5 (Homo sapiens (Human), UniProt Q01469); assay: DAUDA, ANS or NBD-stearate fluorescence displacement binding assay, FABP5; settings: average ± S.E. of at least three independent experiments
Description: FABP5 (30 μg), NBD-stearate (1 μM), and a competitor test compound were incubated in 30 mM Tris-HCl, 100 mM NaCl buffer (pH 7.6). […] The initial assay was run with buffer (30 mM Tris-HCl buffer), negative controls (buffer and NBD-stearate), positive controls (buffer, NBD-stearate, FABP5), and experimental wells with a variable test compound added (arachidonic acid or one of the 48 test compounds) at 10 μM. […] GraphPad Prism was also used to determine the Ki of these select competitors from the equation Ki=IC50/(1+([NBD-stearate]/Kd)). The Kd of NBD-stearate for FABP5 had been determined previously through incubating FABP5 with increasing concentrations of NBD-stearate.
Determination of Ki was derived from DAUDA or NBD-stearate displacement assays (see Table 1).

FABP7 = FABP7 (Homo sapiens (Human), UniProt O15540); assay: DAUDA, ANS or NBD-stearate fluorescence displacement binding assay, FABP7; settings: average ± S.E. of at least three independent experiments
FABP5 [3] = target: T1, FABP5; settings: read-out: Kd of NBD-stearate for FABP5; cited from earlier work
formalin induced pain = settings: formalin induced mouse models; cited from earlier work

Sequence of FABP3 (P05413 whole entry, species assumed): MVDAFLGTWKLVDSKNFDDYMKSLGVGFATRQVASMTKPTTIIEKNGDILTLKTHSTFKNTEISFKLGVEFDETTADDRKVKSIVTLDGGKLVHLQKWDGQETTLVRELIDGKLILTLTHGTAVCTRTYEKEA
T1 sequence (Q01469 whole entry, species assumed): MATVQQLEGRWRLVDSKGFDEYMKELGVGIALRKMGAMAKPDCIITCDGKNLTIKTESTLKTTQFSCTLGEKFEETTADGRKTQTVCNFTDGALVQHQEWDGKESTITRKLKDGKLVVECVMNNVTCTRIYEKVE
Sequence of FABP7 (O15540 whole entry, species assumed): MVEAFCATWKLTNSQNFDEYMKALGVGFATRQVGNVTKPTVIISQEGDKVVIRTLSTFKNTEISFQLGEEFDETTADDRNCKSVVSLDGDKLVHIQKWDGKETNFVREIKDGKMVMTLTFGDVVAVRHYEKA

| Compound | Ki (FABP3) | Ki (FABP5 [2]) | Ki (FABP7) | antinociceptive properties [1] | Kd (FABP5 [3]) | antinociceptive effect in early and late stage pain (formalin induced pain) |
| --- | --- | --- | --- | --- | --- | --- |
| COc1cc([C@H]2[C@H](C(=O)O[C@@H]3C[C@@H]4[C@@H](CN(C)C[C@@H]4C)[C@@H]3C)[C@H](c3ccc(O)c(OC)c3)[C@H]2C(=O)O[C@@H]2C[C@@H]3[C@@H](CN(C)C[C@@H]3C)[C@@H]2C)ccc1O [(−)-incarvillateine] | – | – | – | antinociceptive properties on the same level as morphine | – | – |
| O=C(O)[C@H]1[C@@H](c2ccccc2)[C@H](C(=O)OCc2ccccc2)[C@@H]1c1ccccc1 [Compound 3a, Benzyl α-2,4-diphenylcyclobutane-1,3-dicarboxylate] | > 10 µM | – | – | – | – | – |
| COc1ccc(COC(=O)[C@H]2[C@@H](c3ccccc3)[C@H](C(=O)O)[C@@H]2c2ccccc2)cc1 [Compound 3b, 4-Methoxybenzyl α-2,4-diphenylcyclobutane-1,3-dicarboxylate] | > 10 µM | 2.15 ± 0.1 µM | 1.14 ± 0.06 µM | – | – | – |
| O=C(O)[C@H]1[C@H](c2ccccc2)[C@H](C(=O)OCc2ccc(F)cc2)[C@H]1c1ccccc1 [Compound 3c, 4-Fluorobenzyl α-2,4-diphenylcyclobutane-1,3-dicarboxylate] | > 10 µM | 2.42 ± 0.18 µM | 1.65 ± 0.21 µM | – | – | – |
| O=C(O)[C@H]1[C@H](c2ccccc2)[C@H](C(=O)OCc2ccc(Br)cc2)[C@H]1c1ccccc1 [Compound 3d, 4-Bromobenzyl α-2,4-diphenylcyclobutane-1,3-dicarboxylate] | > 10 µM | 1.58 ± 0.16 µM | 1.25 ± 0.03 µM | – | – | – |
| O=C(O)[C@H]1[C@H](c2ccccc2)[C@H](C(=O)Oc2ccccc2I)[C@H]1c1ccccc1 [Compound 3e] | 1.18 ± 0.1 µM | 1.34 ± 0.21 µM | 0.94 ± 0.34 µM | – | – | – |
| O=C(O)[C@H]1[C@H](c2ccccc2)[C@H](C(=O)Oc2cccc(-c3ccccc3)c2)[C@H]1c1ccccc1 [Compound 3h, Biphenyl-3-yl α-2,4-Diphenylcyclobutane-1,3-dicarboxylate] | 9.75 ± 0.79 µM | – | 0.74 ± 0.17 µM | – | – | – |
| O=C(O)[C@H]1[C@H](c2ccccc2)[C@H](C(=O)Oc2ccc(-c3ccccc3)cc2)[C@H]1c1ccccc1 [Compound 3i] | 3.93 ± 0.16 µM | 2.52 ± 0.36 µM | 2.27 ± 0.03 µM | – | – | – |
| O=C(O)[C@H]1[C@H](c2ccccc2)[C@H](C(=O)Oc2ccccc2-c2ccccc2O)[C@H]1c1ccccc1 [Compound 3j, 2′-HO-biphenyl-2-yl α-2,4-diphenylcyclobutane-1,3-dicarboxylate] | 3.52 ± 0.53 µM | 1.59 ± 0.43 µM | 0.54 ± 0.18 µM | – | – | – |
| O=C(O)[C@H]1[C@H](c2ccccc2)[C@H](C(=O)Oc2ccc(Cl)c(Cl)c2Cl)[C@H]1c1ccccc1 [Compound 3k] | 2.98 ± 0.85 µM | – | 0.54 ± 0.02 µM | – | – | – |
| O=C(O)[C@H]1[C@H](c2ccccc2)[C@H](C(=O)OC2Cc3ccccc3C2)[C@H]1c1ccccc1 [Compound 3m, Indan-2-yl α-2,4-diphenylcyclobutane-1,3-dicarboxylate] | > 10 µM | – | 2.41 ± 0.09 µM | – | – | – |
| C#Cc1cccc2c(OC(=O)[C@H]3[C@@H](c4ccccc4)[C@H](C(=O)O)[C@@H]3c3ccccc3)cccc12 [Compound 3p, 5-Ethynylnaphth-1-yl α-2,4-diphenylcyclobutane-1,3-dicarboxylate] | 4.94 ± 0.31 µM | 3.92 ± 0.75 µM | 1.03 ± 0.22 µM | – | – | – |
| O=C(O)[C@H]1[C@H](c2ccccc2)[C@H](C(=O)OCC2c3ccccc3-c3ccccc32)[C@H]1c1ccccc1 [Compound 3q, 9-Fluorenylmethyl α-2,4-diphenylcyclobutane-1,3-dicarboxylate] | > 10 µM | 2.56 ± 0.16 µM | 2.7 ± 0.62 µM | – | – | – |
| O=C(O)[C@H]1[C@@H](c2ccccc2)[C@H](C(=O)OCC(F)(F)F)[C@@H]1c1ccccc1 [Compound 3r, 2,2,2-Trifluoroethyl α-2,4-diphenylcyclobutane-1,3-dicarboxylate] | > 10 µM | > 10 µM | – | – | – | – |
| O=C(O)C1C(c2ccccc2)C(C(=O)OC2CCCCC2)C1c1ccccc1 (stereo not drawn) [Compound 3s, Cyclohexyl α-2,4-diphenylcyclobutane-1,3-dicarboxylate] | > 10 µM | – | 0.5 ± 0.11 µM | – | – | – |
| CCOCCOCCOCCn1cc(-c2cccc(OC(=O)[C@H]3[C@@H](c4ccccc4)[C@H](C(=O)O)[C@@H]3c3ccccc3)c2)nn1 [Compound 3t] | > 10 µM | > 10 µM | 1.06 ± 0.07 µM | – | – | – |
| CCCCCCC(CCCCCCCCCCC(=O)O)N(C)c1ccc([N+](=O)[O-])c2nonc12 (centres unmarked) [NBD-stearate] | – | – | – | – | 0.16 µM | – |
| O=C(O)C1C(c2ccccc2)C(C(=O)O)C1c1ccccc1 (stereo not drawn) [α-truxillic acid, α-2,4-diphenylcyclobutene-1,3-dicarboxylic Acid] | – | – | – | – | – | best antinociceptive agent in both early and late stage pain |

The next lines start with results.

| Ki (FABP3) | Ki (FABP5 [2]) | Ki (FABP7) | Compound | antinociceptive properties [1] | Kd (FABP5 [3]) | antinociceptive effect in early and late stage pain (formalin induced pain) |
| --- | --- | --- | --- | --- | --- | --- |
| 1.06 ± 0.19 µM | > 10 µM | 2.12 ± 0.19 µM | COc1cc([C@H]2[C@H](C(=O)O)[C@H](c3ccc(O)c(OC)c3)[C@H]2C(=O)Oc2cccc3ccccc23)ccc1O [Compound 4a, 1-Naphthyl α-2,4-di(3-methoxy-4-hydroxy)cyclobutane-1,3-dicarboxylate] | – | – | – |
| – | > 10 µM | – | O=C(O)[C@H]1[C@@H](c2ccc(O)cc2)[C@H](C(=O)Oc2cccc3ccccc23)[C@@H]1c1ccc(O)cc1 [Compound 4d] | – | – | – |
| 0.4 ± 0.08 µM | – | 0.4 ± 0.03 µM | COc1ccccc1C1C(C(=O)O)C(c2ccccc2OC)C1C(=O)O[C@@H]1CCCC[C@H]1c1ccccc1 (stereo partly drawn) [Compound 4e, (1R,2S)-2-Phenylcyclohexyl α-2,4-di(2-methoxylphenyl)cyclobutane-1,3-dicarboxylate] | – | – | – |
| > 10 µM | – | > 10 µM | O=C(O)[C@H]1[C@H](c2ccccc2Cl)[C@H](C(=O)OC2CCCC[C@H]2c2ccccc2)[C@H]1c1ccccc1Cl (stereo partly drawn) [Compound 4f, (1R,2S)-2-Phenylcyclohexyl α-2,4-di(2-chlorophenyl)cyclobutane-1,3-dicarboxyliate] | – | – | – |
| > 10 µM | – | – | O=C(O)[C@H]1[C@H](c2c(Cl)cccc2Cl)[C@H](C(=O)OC2CCCC[C@H]2c2ccccc2)[C@H]1c1c(Cl)cccc1Cl (stereo partly drawn) [Compound 4g, (1R,2S)-2-Phenylcyclohexyl α-2,4-di(2,6-dichlorophenyl)cyclobutane-1,3-dicarboxylate] | – | – | – |
| > 10 µM | – | > 10 µM | O=C(O)C1C(c2ccccc2Br)C(C(=O)O[C@@H]2CCCC[C@H]2c2ccccc2)C1c1ccccc1Br (stereo partly drawn) [Compound 4h, (1R,2S)-2-Phenylcyclohexyl α-2,4-di(2-bromophenyl)cyclobutane-1,3-dicarboxylate] | – | – | – |
| > 10 µM | – | > 10 µM | COc1ccccc1[C@H]1[C@H](C(=O)O)[C@H](c2ccccc2OC)[C@H]1C(=O)OCC1c2ccccc2-c2ccccc21 [Compound 4j, 9-Fluorenylmethyl α-2,4-di(2-methoxylphenyl)cyclobutane-1,3-dicarboxylate] | – | – | – |
| > 10 µM | – | 3.54 ± 0.77 µM | O=C(O)[C@H]1[C@H](c2ccccc2Cl)[C@H](C(=O)OCC2c3ccccc3-c3ccccc32)[C@H]1c1ccccc1Cl [Compound 4k, 9-Fluorenylmethyl α-2,4-di(2-chlorophenyl)cyclobutane-1,3-dicarboxylate] | – | – | – |
